Target: T1, recombinant human NK3 receptor (Homo sapiens, UniProt P29371)
T1 construct: expressed in transfected cells; host or cells: HEK293 cells, transient expression; membranes
T1 sequence (P29371 1-465): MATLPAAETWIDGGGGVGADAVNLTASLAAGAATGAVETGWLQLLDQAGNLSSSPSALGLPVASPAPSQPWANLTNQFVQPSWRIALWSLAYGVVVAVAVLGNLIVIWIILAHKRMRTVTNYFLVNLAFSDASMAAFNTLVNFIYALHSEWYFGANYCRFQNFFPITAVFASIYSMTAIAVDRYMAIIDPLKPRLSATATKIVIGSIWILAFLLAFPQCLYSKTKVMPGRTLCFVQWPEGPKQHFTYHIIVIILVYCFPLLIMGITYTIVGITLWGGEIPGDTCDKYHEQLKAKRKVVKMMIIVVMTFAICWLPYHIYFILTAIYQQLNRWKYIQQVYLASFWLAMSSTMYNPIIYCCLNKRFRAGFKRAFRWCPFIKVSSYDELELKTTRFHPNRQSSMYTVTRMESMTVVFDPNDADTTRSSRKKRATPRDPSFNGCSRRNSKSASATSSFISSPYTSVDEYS
Experiment: [3H]SR142801 competition binding assay
Details: not given

| SMILES | Ki |
| --- | --- |
| COc1ccc(OC(=O)N(C)[C@@H]2CN(C(=O)C3CCN(c4ccc(C#N)cn4)CC3)C[C@H]2c2ccc(Cl)cc2)cc1 [Example 201, [(3S,4R)-4-(4-Chloro-phenyl)-1-(5′-cyano-3,4,5,6-tetrahydro-2H-[1,2′]bipyridinyl-4-carbonyl)-pyrrolidin-3-yl]-methyl-carbamic acid 4-methoxy-phenyl ester] | 3.3 nM |
| CN(C(=O)O[C@H]1CC[C@H](C(F)(F)F)CC1)[C@@H]1CN(C(=O)C2CCN(c3ccc(C(=O)NC(C)(C)C)cn3)CC2)C[C@H]1c1ccc(Cl)cc1 (racemic) [Example 121, rac-[(3S,4R)-1-(5′-tert-Butylcarbamoyl-3,4,5,6-tetrahydro-2H-[1,2′]bipyridinyl-4-carbonyl)-4-(4-chloro-phenyl)-pyrrolidin-3-yl]-methyl-carbamic acid 4-trifluoromethyl-cyclohexyl ester] | 6.6 nM |
| CN(C(=O)Oc1ccc(F)cc1)[C@@H]1CN(C(=O)C2CCN(c3ncc(C(F)(F)F)cc3Cl)CC2)C[C@H]1c1ccc(Cl)cc1 [Example 188, [(3S,4R)-4-(4-Chloro-phenyl)-1-(3′-chloro-5′-trifluoromethyl-3,4,5,6-tetrahydro-2H-[1,2]bipyridinyl-4-carbonyl)-pyrrolidin-3-yl]-methyl-carbamic acid 4-fluoro-phenyl ester] | 14.6 nM |
| CC(=O)Oc1ccc(N2CCC(C(=O)N3C[C@@H](N(C)C(=O)Oc4ccc(F)cc4)[C@H](c4ccc(Cl)cc4)C3)CC2)nc1 [Example 321, Acetic acid 4-{(3R,4S)-3-(4-chloro-phenyl)-4-[(4-fluoro-phenoxycarbonyl)-methyl-amino]-pyrrolidine-1-carbonyl}-3,4,5,6-tetrahydro-2H-[1,2′]bipyridinyl-5′-yl ester] | 2.4 nM |
| CN(C(=O)OCCCC(F)(F)F)[C@@H]1CN(C(=O)C2CCN(c3ccc(C#N)cn3)CC2)C[C@H]1c1ccc(Cl)cc1 [Example 127, [(3S,4R)-4-(4-Chloro-phenyl)-1-(5′-cyano-3,4,5,6-tetrahydro-2H-[1,2′]bipyridinyl-4-carbonyl)-pyrrolidin-3-yl]-methyl-carbamic acid 4,4,4-trifluoro-butyl ester] | 4 nM |
| CN(C(=O)Oc1ccncc1)[C@@H]1CN(C(=O)C2CCN(C(=O)C3(C)CC3)CC2)C[C@H]1c1ccc(Cl)c(Cl)c1 [Example 297, {(3S,4R)-4-(3,4-Dichloro-phenyl)-1-[1-(1-methyl-cyclopropanecarbonyl)-piperidine-4-carbonyl]-pyrrolidin-3-yl}-methyl-carbamic acid pyridin-4-yl ester] | 5.9 nM |
| CN(C(=O)Oc1ccc(F)cc1)[C@@H]1CN(C(=O)C2CCN(c3ncc(F)cn3)CC2)C[C@H]1c1ccc(Cl)cc1 [Example 169, {(3S,4R)-4-(4-Chloro-phenyl)-1-[1-(5-fluoro-pyrimidin-2-yl)-piperidine-4-carbonyl]-pyrrolidin-3-yl}-methyl-carbamic acid 4-fluoro-phenyl ester] | 4.1 nM |
| CN(C(=O)Oc1ccc(F)cc1)[C@@H]1CN(C(=O)C2CCN(C(=O)C3(C#N)CC3)CC2)C[C@H]1c1ccc(F)cc1 [Example 288, [(3S,4R)-1-[1-(1-Cyano-cyclopropanecarbonyl)-piperidine-4-carbonyl]-4-(4-fluoro-phenyl)-pyrrolidin-3-yl]-methyl-carbamic acid 4-fluoro-phenyl ester] | 26.6 nM |

Same assay, conditions: hNK-3 receptor affinity; membranes from HEK293 cells transiently expressing recombinant human NK3 receptor; [3H]SR142801; Cheng-Prussoff; read-out: Data Ki

| Ki | SMILES |
| --- | --- |
| 15.2 nM | CN(C(=O)OCCC1CC1)[C@@H]1CN(C(=O)C2CCN(C(=O)C3(C)CC3)CC2)C[C@H]1c1ccc(Cl)cc1 (stereo in doubt) [Example 64, {(3S,4R)-4-(4-Chloro-phenyl)-1-[1-(1-methyl-cyclopropanecarbonyl)-piperidine-4-carbonyl]-pyrrolidin-3-yl}-methyl-carbamic acid 2-cyclopropyl-ethyl ester] |

Reference: patent publication US9226916B2, “Pyrrolidine derivatives” (HOFFMANN-LA ROCHE INC., priority 2009, dated 2016)
